Experimental data published in US11135214B2, “Methods for enhancing the bio availability and exposure of a voltage-gated potassium channel opener” (priority 2018, dated 2021).
Like-named read-outs stand apart in the source and are kept apart here.

Assay: First-in-human SAD and MAD study, pharmacokinetics
Assay type: in vivo
Procedure: A first-in-human study was conducted to evaluate the safety, tolerability and pharmacokinetics (PK) of single and multiple ascending doses (SAD and MAD) of oral Compound A.
In the SAD Phase, 32 healthy volunteers were randomized (3:1) to Compound A (5, 15, 20, 25 or 30 mg) or placebo. The study featured an adaptive design. A crossover food effect cohort (N=10) was also completed with single doses of 20 mg. A sub-set of 8 male subjects were also assessed with Transcranial Magnetic Stimulation (TMS) for effects on cortical excitability (see Examples 4 and 5).
Repeat doses of Compound A (15 mg QD) were evaluated in a fasted and fed state over 7 and 10 days, respectively. Repeat doses of Compound A (25 mg QD) were also evaluated in a fed state over 10 days.
Compound A was formulated as an immediate release capsule. Serial plasma PK samples were collected for all cohorts. Safety evaluations throughout the study included adverse event (AE) monitoring, clinical laboratory tests, vital signs, ECGs, physical examinations and Columbia-Suicide Severity Rating Scale.

[1] = human, plasma, oral, 5 mg, SAD, 5 mg fasted, N=3, Mean ± SD
[2] = human, plasma, oral, 15 mg, MAD, 15 mg Fed, Day 1, N=6, mean
[3] = human, plasma, oral, 15 mg, MAD, 15 mg Fed, Day 10, N=6, mean
[4] = human, plasma, oral, 15 mg, MAD, 15 mg QD Fasted, Day 1, N=6, mean
[5] = human, plasma, oral, 15 mg, MAD, 15 mg QD Fasted, Day 7, N=6, mean
[6] = human, plasma, oral, 15 mg, SAD, 15 mg fasted, N=3, Mean ± SD
[7] = human, plasma, oral, 20 mg, SAD, 20 mg fasted, N=6, Mean ± SD
[8] = human, plasma, oral, 25 mg, MAD, 25 mg QD Fed, Day 1, N=6, mean
[9] = human, plasma, oral, 25 mg, MAD, 25 mg QD Fed, Day 10, N=6, mean
[10] = human, plasma, oral, 25 mg, SAD, 25 mg fed standard breakfast, N=6, Mean ± SD
[11] = human, plasma, oral, 30 mg, SAD, 30 mg fasted, N=6, Mean ± SD

## Cc1cc(N2CCc3cc(F)ccc3C2)cc(C)c1NC(=O)CC(C)(C)C [Compound A, N-[4-(6-fluoro-3,4-dihydro-1H-isoquinolin-2-yl)-2,6-dimethylphenyl]-3,3-dimethylbutanamide]
Crossover food effect cohort, 20 mg
  absorption enhanced by food, AUCinf: ~1.8 fold
Fasted state
  dose proportionality of exposure: less than dose-proportional exposure
[1]
  Cmax: 7.13 ± 6.12 ng/mL
  Tmax: 3.17 ± 2.47 h
human, plasma, oral, 5 mg, SAD, 5 mg fasted, N=3, Mean ± SD, read-out: AUC0-24
  AUC(0-t): 74.6 ± 50.5 ng·h/mL
human, plasma, oral, 5 mg, SAD, 5 mg fasted, N=3, tLast 32 h, Mean ± SD, read-out: AUC0-t
  AUC(0-t): 91.3 ± 54.2 ng·h/mL
[2]
  Cmax: 35.9 ng/mL
  Tmax: 4.37 h
human, plasma, oral, 15 mg, MAD, 15 mg Fed, Day 1, N=6, mean, read-out: AUC0-24
  AUC(0-t): 353 ng·h/mL
[3]
  Cmax: 60.8 ng/mL
  Tmax: 3.69 h
human, plasma, oral, 15 mg, MAD, 15 mg Fed, Day 10, N=6, mean, read-out: AUC0-24
  AUC(0-t): 1020 ng·h/mL
human, plasma, oral, 15 mg, MAD, 15 mg Fed, Day 10, N=6, mean, read-out: AUC0-t
  AUC(0-t): 4950 ng·h/mL
[4]
  Cmax: 10.5 ng/mL
  Tmax: 2.68 h
human, plasma, oral, 15 mg, MAD, 15 mg QD Fasted, Day 1, N=6, mean, read-out: AUC0-24
  AUC(0-t): 125 ng·h/mL
[5]
  Cmax: 45.1 ng/mL
  Tmax: 2.69 h
human, plasma, oral, 15 mg, MAD, 15 mg QD Fasted, Day 7, N=6, mean, read-out: AUC0-24
  AUC(0-t): 757 ng·h/mL
human, plasma, oral, 15 mg, MAD, 15 mg QD Fasted, Day 7, N=6, mean, read-out: AUC0-t
  AUC(0-t): 4260 ng·h/mL
[6]
  Cmax: 27.3 ± 11.1 ng/mL
  Tmax: 4.5 ± 2.6 h
human, plasma, oral, 15 mg, SAD, 15 mg fasted, N=3, Mean ± SD, read-out: AUC0-24
  AUC(0-t): 328 ± 141 ng·h/mL
human, plasma, oral, 15 mg, SAD, 15 mg fasted, N=3, tLast 32 h, Mean ± SD, read-out: AUC0-t
  AUC(0-t): 397 ± 166 ng·h/mL
[7]
  Cmax: 31.5 ± 21.1 ng/mL
  Tmax: 3.69 ± 2.05 h
human, plasma, oral, 20 mg, SAD, 20 mg fasted, N=6, Mean ± SD, read-out: AUC0-24
  AUC(0-t): 376 ± 220 ng·h/mL
human, plasma, oral, 20 mg, SAD, 20 mg fasted, N=6, tLast 72 h, Mean ± SD, read-out: AUC0-t
  AUC(0-t): 709 ± 337 ng·h/mL
[8]
  Cmax: 49.6 ng/mL
  Tmax: 4.38 h
human, plasma, oral, 25 mg, MAD, 25 mg QD Fed, Day 1, N=6, mean, read-out: AUC0-24
  AUC(0-t): 592 ng·h/mL
[9]
  Cmax: 96.7 ng/mL
  Tmax: 4.99 h
human, plasma, oral, 25 mg, MAD, 25 mg QD Fed, Day 10, N=6, mean, read-out: AUC0-24
  AUC(0-t): 1720 ng·h/mL
human, plasma, oral, 25 mg, MAD, 25 mg QD Fed, Day 10, N=6, mean, read-out: AUC0-t
  AUC(0-t): 8010 ng·h/mL
[10]
  Cmax: 45.8 ± 14.3 ng/mL
  Tmax: 4.51 ± 1.22 h
human, plasma, oral, 25 mg, SAD, 25 mg fed standard breakfast, N=6, Mean ± SD, read-out: AUC0-24
  AUC(0-t): 482 ± 130 ng·h/mL
human, plasma, oral, 25 mg, SAD, 25 mg fed, N=6, tLast 146 h, Mean ± SD, read-out: AUC0-t
  AUC(0-t): 1470 ± 270 ng·h/mL
[11]
  Cmax: 35.5 ± 33.5 ng/mL
  Tmax: 3.17 ± 1.48 h
human, plasma, oral, 30 mg, SAD, 30 mg fasted, N=6, Mean ± SD, read-out: AUC0-24
  AUC(0-t): 369 ± 219 ng·h/mL
human, plasma, oral, 30 mg, SAD, 30 mg fasted, N=6, tLast 72 h, Mean ± SD, read-out: AUC0-t
  AUC(0-t): 837 ± 280 ng·h/mL
human, plasma, oral, MAD, 15 mg Fed, Day 10, N=6, mean
  half-life at 10 days: 239 h
human, plasma, oral, MAD, 15 mg QD Fasted, Day 7, N=6, mean
  half-life at 7 days: 167 h
human, plasma, oral, MAD, 25 mg QD Fed, Day 10, N=6, mean
  half-life at 10 days: 218 h
